From US20080188506A1, “SPIROINDOLINONE DERIVATIVES” (priority 2007, published 2008)

Molecular target: interaction between p53 and MDM2 proteins (recombinant GST-tagged MDM2 / p53 peptide) (Homo sapiens, UniProt Q00987)
Test: HTRF assay of inhibition of the p53-MDM2 interaction (GST-MDM2 / biotinylated p53 peptide)
Type: binding
Settings: 0.2% BSA, 37° C. 1 h
Description: The ability of the compounds to inhibit the interaction between p53 and MDM2 proteins was measured by an HTRF (homogeneous time-resolved fluorescence) assay in which recombinant GST-tagged MDM2 binds to a peptide that resembles the MDM2-interacting region of p53 (Lane et al.). Binding of GST-MDM2 protein and p53-peptide (biotinylated on its N-terminal end) is registered by the FRET (fluorescence resonance energy transfer) between Europium (Eu)-labeled anti-GST antibody and streptavidin-conjugated Allophycocyanin (APC).
Test is performed in black flat-bottom 384-well plates (Costar) in a total volume of […] containing:90 nM biotinylate peptide, 160 ng/ml GST-MDM2, 20 nM streptavidin-APC (PerkinElmerWallac), 2 nM Eu-labeled anti-GST-antibody (PerkinElmerWallac), 0.2% bovine serum albumin (BSA), 1 mM dithiothreitol (DTT) and 20 mM […] (TBS) buffer as follows: Add 10 uL of GST-MDM2 (640 ng/ml working solution) in reaction buffer to each well. Add 10 uL diluted compounds (1:5 dilution in reaction buffer) to each well, mix by shaking. Add 20 uL biotinylated p53 peptide (180 nM working solution) in reaction buffer to each well and mix on shaker. Incubate at 37° C. for 1 h. Add 20 uL streptavidin-APC and Eu-anti-GST antibody mixture (6 nM Eu-anti-GST and 60 nM streptavidin-APC working solution) in TBS buffer with 0.2% BSA, shake at room temperature for 30 minutes and read using a TRF-capable plate reader at 665 and 615 nm (Victor 5, Perkin ElmerWallac). If not specified, the reagents were purchased from Sigma Chemical Co.

interaction between p53 and MDM2 proteins (recombinant GST-tagged MDM2 / p53 peptide), sequence (Q00987 whole entry): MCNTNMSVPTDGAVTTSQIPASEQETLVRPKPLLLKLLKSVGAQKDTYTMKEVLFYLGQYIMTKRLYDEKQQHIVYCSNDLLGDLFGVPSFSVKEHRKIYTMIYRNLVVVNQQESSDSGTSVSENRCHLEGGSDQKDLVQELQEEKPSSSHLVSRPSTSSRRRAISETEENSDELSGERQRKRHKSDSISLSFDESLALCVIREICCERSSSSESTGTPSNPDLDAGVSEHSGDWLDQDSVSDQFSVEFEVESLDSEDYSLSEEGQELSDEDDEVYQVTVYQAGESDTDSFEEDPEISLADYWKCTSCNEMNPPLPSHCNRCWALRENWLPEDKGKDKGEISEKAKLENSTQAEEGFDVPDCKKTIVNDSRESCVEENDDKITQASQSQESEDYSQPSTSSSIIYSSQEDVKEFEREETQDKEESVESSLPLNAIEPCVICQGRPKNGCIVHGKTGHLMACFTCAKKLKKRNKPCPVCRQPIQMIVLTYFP

IC50 [µM] | SMILES
5.21 | COc1cccc([C@H]2NCC[C@@H](c3cccc(Cl)c3)[C@]23C(=O)Nc2cc(Cl)ccc23)c1 (racemic) [Example 8c, racemic (2′R, 3R, 4′S)-6-chloro-4′-(3-chlorophenyl)-2′-(3-methoxyphenyl) spiro[3H-indole-3,3′-piperidine]-2(1H)-one]
6.95 | O=C1Nc2cc(Cl)ccc2[C@]12[C@@H](c1ccccc1C(F)(F)F)NCC[C@H]2c1cccc(Cl)c1 (racemic) [Example 11c]
2.31 | COc1ccc(F)cc1[C@H]1NCC[C@@H](c2cccc(Cl)c2)[C@]12C(=O)Nc1cc(Cl)ccc12 (racemic) [Example 16c, racemic (2′R, 3R, 4′S)-6-chloro-4′-(3-chlorophenyl)-2′-(5-fluoro-2-methoxyphenyl) spiro[3H-indole-3,3′-piperidine]-2(1H)-one]
1.03 | C=C(CC(C)C)[C@H]1n2cnnc2C[C@@H](c2cccc(Cl)c2)[C@]12C(=O)Nc1cc(Cl)ccc12 (racemic) [Example 44h]
